Source: BigSolDB 2.1

COc1cc(N)nc(OC)n1
solubility (mole fraction)
Conditions | 283.15 K | 288.15 K | 293.15 K | 298.15 K | 303.15 K | 308.15 K | 313.15 K | 318.15 K | 323.15 K
in DMF | 0.055 | 0.0726 | 0.0949 | 0.123 | 0.158 | 0.201 | 0.254 | 0.319 | 0.397
in ethanol | 0.0101 | 0.013 | 0.0164 | 0.0205 | 0.0253 | 0.0313 | 0.0383 | 0.0463 | 0.0561
in isopropanol | 0.00553 | 0.00742 | 0.0101 | 0.0133 | 0.0175 | 0.023 | 0.0297 | 0.038 | 0.0484
in methanol | 0.0181 | 0.0214 | 0.0254 | 0.0301 | 0.0352 | 0.0414 | 0.0482 | 0.0559 | 0.0643
in water | 0.000298 | 0.000347 | 0.000405 | 0.000464 | 0.000534 | 0.000614 | 0.000695 | 0.000788 | 0.000897
